Laboratory results from patent publication US9006459B2, “Fluorescent markers and use thereof for labeling specific protein targets” (University of Ottawa, priority 2010, dated 2015).

Tests used:
[1] = Fluorescence enhancement (FE) ratio upon reaction with excess MPA; format: physicochemical; details: for FE (fluorescence enhancement ratio): HEPES (pH 7.4)/DMSO 5%, final divided by initial fluorescence intensity
Description: (§1) Spectroscopic characterization of fluorogen 5 included absorbance and fluorescence emission maxima as well as the fluorescence enhancement (FE) ratio. The spectroscopic characteristics were evaluated in two solvent systems (DMSO and HEPES (pH 7.4)/5% DMSO). The FE ratio determination was carried out by reacting 5 with excess mercaptopropionic acid (MPA) and then dividing the final fluorescence by the initial fluorescence intensity, at a specific fluorogen concentration.
Determination of Fluorescence Enhancement Ratios
(§2) Absorbance spectra were recorded at 25° C., with a Cary-100 spectrometer. Emission spectra and fluorescence intensity measurements were recorded at 25° C. with a Cary Eclipse fluorometer. Excitation and emission slits were fixed at 5 nm
3-Mercaptopropionic acid (50 eq) was added to a 1 to 4 mM DMSO solution of fluorogen. The resulting mixture was stirred at 25° C., in the dark for 18 hours after which fluorescence intensities of a dilution in HEPES buffer (pH 7.4) were recorded. Final fluorescence intensity was then divided by the initial florescence intensity at the same fluorogen concentration leading to the fluorescence enhancement ratio for the fluorogen.

[2] = Photophysical properties (absorbance/excitation and fluorescence emission maxima, fluorescence intensity); format: physicochemical; details: for initial fluorescence intensity: before reaction with MPA
Description: as §1, §2

Compound	FE (fluorescence enhancement ratio) [1]	λem MPA adduct ([2]; di-MPA adduct in HEPES/DMSO 5%) [nm]	λex MPA adduct ([2]; di-MPA adduct in HEPES/DMSO 5%) [nm]	λem ([2]; fluorogen in HEPES/DMSO 5%) [nm]	λex ([2]; fluorogen in HEPES/DMSO 5%) [nm]	fluorescence intensity increase upon reaction with MPA ([1]; pure DMSO)	melting point [°C]	initial fluorescence intensity ([2]; aqueous media (HEPES/5% DMSO))	λem MPA adduct ([2]; di-MPA adduct in DMSO) [nm]	λex MPA adduct ([2]; di-MPA adduct in DMSO) [nm]	λem ([2]; fluorogen in DMSO) [nm]	λex ([2]; fluorogen in DMSO) [nm]	initial fluorescence intensity ([2]; pure DMSO)
8-(2′,6′-di-((4″-(3-methylmaleimido)phenyl)ethynyl))-4,4-difluoro-4-bora-3a,4a-diaza-s-indacene [Fluorogen 17]	6.4	–	–	–	–	–	–	–	–	–	–	–	–
8-(3′,5′-di-(3-methylmaleimido)-phenyl-4,4-difluoro-4-bora-3a,4a-diaza-s-indacene [Fluorogen 13]	3.5	514	510	514	510	–	–	–	–	–	–	–	–
CC1=CC(=O)N(c2cc(NS(=O)(=O)c3cccc4c(N(C)C)cccc34)cc(N3C(=O)C=C(C)C3=O)c2)C1=O [Fluorogen 5, N-Dansyl-3,5-di-(3-methylmaleimido)aniline]	–	520	325	520	325	over 300 fold	230	at the level of the background noise	540	350	540	345	approximately 2
COc1ccc2cc(C(=O)NCc3cc(N4C(=O)C=C(C)C4=O)cc(N4C(=O)C=C(C)C4=O)c3)c(=O)oc2c1 [Fluorogen 11, 7-Methoxy-3-(3,5-di-(3-methylmaleimido)benzyl)aminocarbonyl coumarin]	6.4	404	347	404	347	–	–	–	–	–	–	–	–
